By IC50 is commonly meant the concentration that inhibits the measured activity by half. A high value points to weaker potency in that assay.

Where no end group is shown, it is not given here.

The values that follow come from paper PMC3794980, “Identification of Conserved and HLA Promiscuous DENV3 T-Cell Epitopes” (PLoS Neglected Tropical Diseases, 2013).

Assay [1] concerns the target DRB4*0101 (Homo sapiens, UniProt P01903+P13762, G164S). The assay is described as follows: biochemical. The assay is classed as binding.
The target of assay [2] is DRB3*0101 (Homo sapiens, UniProt P01903+P79483). Briefly: biochemical. The assay is classed as binding.

With `CC[C@H](C)[C@H](NC(=O)[C@H](C)NC(=O)[C@@H](NC(=O)[C@H](C)NC(=O)[C@H](CC(C)C)NC(=O)[C@H](CCCNC(=N)N)NC(=O)[C@H](CCCCN)NC(=O)[C@@H]1CCCN1C(=O)[C@H](CO)NC(=O)[C@H](CC(=O)O)NC(=O)[C@H](C)NC(=O)[C@H](CCC(N)=O)NC(=O)[C@H](Cc1ccccc1)NC(=O)[C@@H](N)CCCCN)[C@@H](C)O)C(=O)N[C@@H](C)C(=O)O` [NS1 33-47], the values for the IC50 in assay [1] and in assay [2] were 916 nM and 22 nM, respectively. In the same order, the values of `CC[C@H](C)[C@H](NC(=O)[C@H](Cc1c[nH]c2ccccc12)NC(=O)[C@H](CCC(=O)O)NC(=O)[C@H](CC(N)=O)NC(=O)CNC(=O)[C@H](CO)NC(=O)[C@H](CC(N)=O)NC(=O)[C@@H](N)Cc1c[nH]c2ccccc12)C(=O)N[C@H](C(=O)N[C@@H](CC(=O)O)C(=O)N[C@@H](Cc1ccccc1)C(=O)N[C@@H](C)C(=O)NCC(=O)N[C@@H](CCCCN)C(=O)N[C@H](C(=O)O)[C@@H](C)O)[C@@H](C)O` [NS3 345-359] are 1050 nM and 32 nM. Regarding `CC[C@H](C)[C@H](NC(=O)[C@H](Cc1c[nH]c2ccccc12)NC(=O)[C@H](CCC(=O)O)NC(=O)[C@@H](N)CC(N)=O)C(=O)N[C@H](C(=O)N[C@@H](CC(=O)O)C(=O)N[C@@H](Cc1ccccc1)C(=O)N[C@@H](C)C(=O)NCC(=O)N[C@@H](CCCCN)C(=O)N[C@H](C(=O)N[C@H](C(=O)N[C@@H](Cc1c[nH]c2ccccc12)C(=O)N[C@@H](Cc1ccccc1)C(=O)N[C@H](C(=O)O)C(C)C)C(C)C)[C@@H](C)O)[C@@H](C)O` [NS3 349-363], the IC50 was determined as 5420 nM in assay [1] and 221 nM in assay [2]. With `CC[C@H](C)[C@H](NC(=O)[C@@H](NC(=O)[C@H](CC(C)C)NC(=O)[C@H](CC(N)=O)NC(=O)[C@H](CCCNC(=N)N)NC(=O)[C@H](CCCCN)NC(=O)[C@@H](N)CCCCN)[C@@H](C)O)C(=O)N[C@@H](CCSC)C(=O)N[C@@H](CC(=O)O)C(=O)N[C@@H](CC(C)C)C(=O)N[C@@H](Cc1c[nH]cn1)C(=O)N1CCC[C@H]1C(=O)NCC(=O)N[C@@H](CO)C(=O)NCC(=O)O` [NS3 185-199], the IC50 worked out at 7.6 nM in assay [1] and 1460 nM in assay [2].

On to `CC[C@H](C)[C@H](N)C(=O)N[C@@H](CO)C(=O)N[C@@H](Cc1ccc(O)cc1)C(=O)NCC(=O)NCC(=O)NCC(=O)N[C@@H](Cc1c[nH]c2ccccc12)C(=O)N[C@@H](CCCNC(=N)N)C(=O)N[C@@H](CC(C)C)C(=O)N[C@@H](CO)C(=O)N[C@@H](C)C(=O)N[C@@H](CCC(N)=O)C(=O)N[C@@H](Cc1c[nH]c2ccccc12)C(=O)N[C@@H](CCC(N)=O)C(=O)N[C@@H](CCCCN)C(=O)O` [NS3 77-91], for which the values for the IC50 in assay [1] and in assay [2] were 708 nM and 2020 nM, respectively. In the same order, the values of `CC[C@H](C)[C@H](NC(=O)[C@H](C)NC(=O)[C@H](CCC(=O)O)NC(=O)[C@H](CCCNC(=N)N)NC(=O)[C@@H](N)C(C)C)C(=O)N[C@@H](CCCCN)C(=O)N[C@@H](CCCNC(=N)N)C(=O)N[C@@H](CCCNC(=N)N)C(=O)N[C@@H](CC(C)C)C(=O)N[C@@H](CCCNC(=N)N)C(=O)N[C@H](C(=O)N[C@@H](CC(C)C)C(=O)N[C@H](C(=O)N[C@@H](CC(C)C)C(=O)N[C@@H](C)C(=O)O)[C@@H](C)CC)[C@@H](C)O` [NS3 209-223] are 5.1 nM and 2610 nM.

As to `CC[C@H](C)[C@H](NC(=O)[C@@H](NC(=O)[C@H](CCSC)NC(=O)[C@H](CC(=O)O)NC(=O)[C@H](CO)NC(=O)[C@H](CCC(=O)O)NC(=O)[C@H](CC(C)C)NC(=O)[C@@H](NC(=O)CNC(=O)[C@H](CC(N)=O)NC(=O)[C@H](CO)NC(=O)[C@H](Cc1c[nH]c2ccccc12)NC(=O)[C@H](CC(C)C)NC(=O)[C@@H](NC(=O)[C@@H](N)Cc1c[nH]cn1)[C@@H](C)O)C(C)C)[C@@H](C)CC)C(=O)O` [NS1 229-243], the figures for the IC50 in assay [1] and in assay [2] were 8080 nM and 733 nM, respectively.

The compound EITPQASTTEAILPE [Envelope 161-175] returned an IC50 in assay [1] of 16600 nM. In other words, the double-digit micromolar range.
